Biological target: hERG cardiac potassium channel (Kv11.1) (Homo sapiens, UniProt Q12809)
Assay type: cell-based
Conditions: hamster, cho cells

hERG cardiac potassium channel (Kv11.1), sequence (Q12809 whole entry): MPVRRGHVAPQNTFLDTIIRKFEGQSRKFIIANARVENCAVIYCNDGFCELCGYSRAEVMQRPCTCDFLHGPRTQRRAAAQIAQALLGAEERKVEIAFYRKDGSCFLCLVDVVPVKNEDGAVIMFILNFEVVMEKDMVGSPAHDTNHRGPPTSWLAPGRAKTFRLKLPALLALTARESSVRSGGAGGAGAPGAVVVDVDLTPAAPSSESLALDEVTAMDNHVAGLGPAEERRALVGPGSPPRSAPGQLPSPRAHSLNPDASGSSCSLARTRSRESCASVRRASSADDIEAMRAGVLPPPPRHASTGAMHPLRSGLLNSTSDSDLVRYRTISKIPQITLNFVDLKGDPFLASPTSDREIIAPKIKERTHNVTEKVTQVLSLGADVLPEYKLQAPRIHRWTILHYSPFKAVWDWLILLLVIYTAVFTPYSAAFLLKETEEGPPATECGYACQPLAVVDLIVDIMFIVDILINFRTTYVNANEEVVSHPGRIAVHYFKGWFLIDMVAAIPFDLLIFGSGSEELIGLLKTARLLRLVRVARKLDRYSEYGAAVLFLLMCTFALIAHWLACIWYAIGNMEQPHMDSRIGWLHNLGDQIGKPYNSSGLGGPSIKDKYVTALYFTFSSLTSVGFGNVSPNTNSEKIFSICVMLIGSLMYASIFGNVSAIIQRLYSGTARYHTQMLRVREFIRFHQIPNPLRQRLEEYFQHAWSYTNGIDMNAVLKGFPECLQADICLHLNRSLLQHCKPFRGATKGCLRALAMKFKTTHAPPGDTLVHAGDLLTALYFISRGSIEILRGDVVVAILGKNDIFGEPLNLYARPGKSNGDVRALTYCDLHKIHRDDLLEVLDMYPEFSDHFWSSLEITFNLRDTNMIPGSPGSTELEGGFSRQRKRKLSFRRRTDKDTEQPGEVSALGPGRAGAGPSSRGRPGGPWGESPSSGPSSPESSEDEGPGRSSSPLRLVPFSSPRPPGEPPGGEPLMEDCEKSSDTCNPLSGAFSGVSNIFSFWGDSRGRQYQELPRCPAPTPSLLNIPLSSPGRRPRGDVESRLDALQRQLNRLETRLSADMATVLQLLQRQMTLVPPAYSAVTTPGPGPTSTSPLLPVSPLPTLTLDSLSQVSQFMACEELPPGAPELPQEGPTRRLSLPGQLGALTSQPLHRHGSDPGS

AZA-2
IC50: 2200 nM
